Measured values: US20120053148A1, “INHIBITORS OF HEPATITIS C VIRUS” (GILEAD SCIENCES, INC., priority 2010, published 2012)

Assays:
HCV Replicon IB = test: HCV replicon assay in Huh-7 cells, genotype 1b (Rluc luciferase readout); format: cell-based, hepatitis C virus; details: Hepatitis C virus, 72 h; 10 μM; Huh-7 HCV replicon cells, 3 days; read-out: % inhibition @ 10 μM HCV Replicon IB
HCV Replicon IA = test: HCV replicon assay in Huh-7 cells, genotype 1a; format: cell-based; details: Hepatitis C virus, 72 h, Huh-7 HCV replicon cells, 3 days

Row | Compound | inhibition at 10 µM (HCV Replicon IB) [%] | inhibition at 10 µM (HCV Replicon IA) [%]
1 | O=C(c1cc(O)c2cc(-c3ccoc3)cc(C(F)(F)F)c2n1)N1CCC(c2cccc(F)c2)CC1 [Compound 31] | 58.1 | 98.1
2 | C[C@@H](NC(=O)c1cc(O)c2cc(-c3cn[nH]c3)cc(C(F)(F)F)c2n1)c1ccccc1 (single isomer, unassigned) [Compound 18] | 55.8 | 55.3
3 | Nc1cc(C(=O)NCc2ccccn2)nc2c(C(F)(F)F)cc(-c3ccccc3)cc12 [Compound 68] | 99.7 | 99.9
4 | O=C(NCc1cccs1)c1nc(N2CCCC2)c2cc(-c3ccccc3)cc(C(F)(F)F)c2n1 [Compound 53] | 86.2 | 91.4
5 | O=C(NCc1cccs1)c1cc(O)c2c(Cl)c(-c3ccccc3)cc(C(F)(F)F)c2n1 [Compound 64] | 88.2 | 79.2
6 | O=C(NCc1ccccn1)c1cc(O)c2cc(-c3cn[nH]c3)cc(C(F)(F)F)c2n1 [Compound 12] | 99.2 | 98.2
7 | O=C(NCc1cccs1)c1cc(O)c2cc(-c3cc[nH]n3)cc(C(F)(F)F)c2n1 [Compound 35] | 94.5 | 94.2
8 | O=C(NCc1ccccn1)c1cc(O)c2cc(-c3ccccc3F)cc(C(F)(F)F)c2n1 [Compound 70] | 82 | 69.1
9 | Nc1cc(C(=O)NCc2cccs2)nc2c(C(F)(F)F)cc(-c3ccccc3)cc12 [Compound 66] | 99.9 | 99.9
10 | O=C(NCc1ccc(Cl)s1)c1cc(O)c2cc(-c3cc[nH]n3)cc(C(F)(F)F)c2n1 [Compound 14] | 68.6 | 84.2
11 | O=C(c1cc(O)c2cc(-c3ccoc3)cc(C(F)(F)F)c2n1)N1CC=C(c2ccccc2)CC1 [Compound 29] | 37.7 | 87.4
12 | O=C(NCc1ccncn1)c1cc(O)c2cc(-c3cn[nH]c3)cc(C(F)(F)F)c2n1 [Compound 15] | 47.3 | 59.3
13 | O=C(Nc1ccccc1)c1cc(O)c2cc(-c3cn[nH]c3)cc(C(F)(F)F)c2n1 [Compound 19] | 71.1 | 98.5
14 | O=C(NCc1cccs1)c1nc(O)c2cc(-c3ccccc3)cc(C(F)(F)F)c2n1 [Compound 47, 4-oxo-6-phenyl-8-trifluoromethyl-3,4-dihydro-quinazoline-2-carboxylic acid (thiophen-2-ylmethyl)-amide] | 99.8 | 99.7
15 | COc1cc(C(=O)NCc2cccs2)nc2c(C(F)(F)F)cc(-c3ccoc3)cc12 [Compound 27] | 80.3 | 65.5
16 | Nc1cc(O)c2cc(-c3ccccc3)cc(C(F)(F)F)c2n1 [Compound 39] | 65 | 92.5
17 | Cc1cccnc1CNC(=O)c1cc(O)c2cc(-c3cn[nH]c3)cc(C(F)(F)F)c2n1 [Compound 17] | 96.4 | 98.3
18 | O=C(NCc1cccs1)c1nc(O)c2cc(-c3ccoc3)cc(C(F)(F)F)c2n1 [Compound 48] | 99.9 | 99.4
19 | O=C(Cc1cccs1)Nc1cc(O)c2cc(-c3ccccc3)cc(C(F)(F)F)c2n1 [Compound 40] | 97.6 | 99.7
20 | Nc1nc(C(=O)NCc2cccs2)nc2c(C(F)(F)F)cc(-c3ccccc3)cc12 [Compound 51] | 100 | 100
21 | O=C(NCc1cccs1)c1cc(O)c2cc(-c3cn[nH]c3)cc(C(F)(F)F)c2n1 [Compound 36] | 99.4 | 99.3
22 | O=C(NCc1cccs1)c1cc(Cl)c2cc(-c3ccccc3)cc(C(F)(F)F)c2n1 [Compound 65] | 99.5 | 97.5
23 | O=C(NCc1ccc(Cl)s1)c1cc(O)c2cc(-c3ccoc3)cc(C(F)(F)F)c2n1 [Compound 23] | 99.4 | 99.9
24 | O=C(NCc1cncs1)c1cc(O)c2cc(-c3cn[nH]c3)cc(C(F)(F)F)c2n1 [Compound 8] | 94 | 98.8
25 | CC(NC(=O)c1cc(O)c2cc(-c3cn[nH]c3)cc(C(F)(F)F)c2n1)c1ccccn1 (centres unmarked) [Compound 20] | 89 | 86.1
26 | Oc1cc(-c2nnc(Nc3ccccc3)o2)nc2c(C(F)(F)F)cc(-c3ccccc3)cc12 [Compound 54] | 98.7 | 97.9
27 | O=C(NCc1cccs1)c1cc(O)c2cc(-c3ccoc3)cc(C(F)(F)F)c2n1 [Compound 7] | 99.8 | 99.2
28 | O=C(NCc1cccs1)c1cc(O)c2cc(-c3ccccc3)cc(C(F)(F)F)c2n1 [Compound 34] | 98.3 | 97.8
